Reference: patent US20250262262A1, “a-ACID AND/OR B-ACID BASED COPOSITIONS FROM HUMULUS FOR USE IN A HUMAN AND/OR VETERINARY APPLICATION” (Orotech NV, priority 2022, published 2025)

System: Histomonas meleagridis
Experiment: Growth and viability of in vitro cultivated Histomonas meleagridis
Format: cell-based
Details: for Histomonas meleagridis cells counted: extrudate corresponding to 200 μg tetra-hydro-iso-α-acid/ml, dimetridazole 400 μg/ml
Protocol: The effect of a tetra-hydro-iso-α-acids milled extrudate on the growth of Histomonas meleagridis in vitro was investigated. Therefore, a milled extrudate of tetra-hydro-iso-α-acids (corresponding to an amount of 200 μg tetra-hydro-iso-α-acid/ml), a positive control (dimetridazole, concentration of 400 μg/ml) and a negative control (distilled water without addition of any substance) were used. Histomonas meleagridis cells were counted before and after 24, 48 and 72 hours of incubation.

`Cc1ncc([N+](=O)[O-])n1C` [Dimetridazole, dimetridazole] was tested, and the “Histomonas meleagridis cells counted” value (0 h (before incubation)) was 1 × 10^5, the “Histomonas meleagridis cells counted” value (24 h of incubation) was 0 and the “Histomonas meleagridis cells counted” value (48 h of incubation) was 0. For the same molecule, the “Histomonas meleagridis cells counted” value (72 h of incubation) was 0 and the “Effect on Histomonas meleagridis cells (in words)” value (in vitro, versus negative control) was “total reduction”.
